According to patent US20240158446A1, “CYCLIC COMPOUND HAVING SELECTIVE INHIBITORY ACTION ON KRAS OVER HRAS AND NRAS” (CHUGAI SEIYAKU KABUSHIKI KAISHA, priority 2021, published 2024):

Tests used:
[1] = biological target: GDP-bound NRAS wild-type protein (Homo sapiens, UniProt P01111); experiment: Binding to NRAS by surface plasmon resonance (SPR), Single Cycle Kinetics; settings: SPR KD ratio NRAS/KRAS, class symbols
[2] = biological target: GDP-bound HRAS wild-type protein (Homo sapiens, UniProt P01112); experiment: Binding to HRAS by surface plasmon resonance (SPR), Single Cycle Kinetics; settings: SPR KD ratio HRAS/KRAS, class symbols
[3] = test system: human lung cancer strain NCI-H441;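 further: cell proliferation inhibition after four days measured by CellTiter-Glo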
[4] = biological target: GDP-bound KRAS wild-type protein (Homo sapiens, UniProt P01116); experiment: Binding to KRAS by surface plasmon resonance (SPR), Single Cycle Kinetics; settings: SPR Single Cycle Kinetics, GDP-bound KRAS wild-type protein, 1:1 binding model; read-out: KRAS KD
Chain of GDP-bound KRAS wild-type protein (P01116 whole entry): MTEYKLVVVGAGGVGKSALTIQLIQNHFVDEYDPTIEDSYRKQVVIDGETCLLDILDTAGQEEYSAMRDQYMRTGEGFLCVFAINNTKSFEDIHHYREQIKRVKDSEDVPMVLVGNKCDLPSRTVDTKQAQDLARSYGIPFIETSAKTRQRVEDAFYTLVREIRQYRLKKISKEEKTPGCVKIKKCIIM

Chain of GDP-bound NRAS wild-type protein (P01111 whole entry): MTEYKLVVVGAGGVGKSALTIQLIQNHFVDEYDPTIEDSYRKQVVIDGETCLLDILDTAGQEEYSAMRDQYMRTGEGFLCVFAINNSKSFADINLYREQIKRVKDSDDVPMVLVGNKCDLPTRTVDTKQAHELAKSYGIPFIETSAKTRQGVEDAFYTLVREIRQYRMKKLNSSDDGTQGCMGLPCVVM
Chain of GDP-bound HRAS wild-type protein (P01112 whole entry): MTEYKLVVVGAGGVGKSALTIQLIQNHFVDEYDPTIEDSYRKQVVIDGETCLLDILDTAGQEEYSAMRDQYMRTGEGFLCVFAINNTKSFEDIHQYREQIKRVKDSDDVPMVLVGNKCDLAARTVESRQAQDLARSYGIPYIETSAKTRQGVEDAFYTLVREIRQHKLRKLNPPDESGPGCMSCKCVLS

Row | Structure (SMILES) | NRAS/KRAS (ratio of KD value with respect to GDP-bound NRAS wild-type protein to KD value with respect to KRAS) [1] | HRAS/KRAS (ratio of KD value with respect to GDP-bound HRAS wild-type protein to KD value with respect to KRAS) [2] | IC50 [3] | Kd [4]
1 | CCC[C@H]1C(=O)N[C@@H]([C@@H](C)CC)C(=O)N2C[C@@H](OC)C[C@H]2C(=O)N(C)[C@H]2C/C=C\CCN(C2=O)[C@@H](Cc2ccc(C)cc2)C(=O)N(C)CC(=O)N[C@@H](CCc2ccc(C(F)(F)F)c(OC)c2)C(=O)N2C[C@H](OCC)C[C@H]2C(=O)NC2(CC(C)(C)C2)C(=O)N(C)[C@@H](C2CCCC2)C(=O)N(C)[C@H](C(=O)N(C)C)CC(=O)N1C [PP2557] | A (a compound having 10 or more and less than 20 is denoted as A) | B (a compound having 3 or more and less than 10 is denoted as B) | 14.2 nM | 0.3 nM
2 | CCC[C@H]1C(=O)N[C@@H]([C@@H](C)CC)C(=O)N(C2CC2)CC(=O)N(C)[C@H]2C/C=C\CCN(C2=O)[C@@H](Cc2ccc(C)cc2)C(=O)N(C)CC(=O)N[C@@H](CCc2ccc(Cl)c(Cl)c2)C(=O)N2C[C@H](OCC)C[C@H]2C(=O)NC2(CC(C)(C)C2)C(=O)N(C)[C@@H](C2CCCC2)C(=O)N(C)[C@H](C(=O)N(C)C)CC(=O)N1C [PP2559] | A (a compound having 10 or more and less than 20 is denoted as A) | A (a compound having 10 or more and less than 20 is denoted as A) | 103 nM | 0.91 nM
3 | CCC[C@H]1C(=O)N[C@@H]([C@@H](C)CC)C(=O)N(C2CC2)CC(=O)N(C)[C@H]2C/C=C\CCN(C2=O)[C@@H](Cc2ccc(C)cc2)C(=O)N(C)CC(=O)N[C@@H](CCc2cc(F)c(C(F)(F)F)c(F)c2)C(=O)N2C[C@H](OCC)C[C@H]2C(=O)NC2(CC(C)(C)C2)C(=O)N(C)[C@@H](C(CC)CC)C(=O)N(C)[C@H](C(=O)N(C)C)CC(=O)N1C [PP2560] | AA (a compound having 20 or more is denoted as AA) | A (a compound having 10 or more and less than 20 is denoted as A) | 46.3 nM | 1 nM
4 | CCC[C@H]1C(=O)N[C@@H]([C@@H](C)CC)C(=O)N(C2CC2)CC(=O)N(C)[C@H]2C/C=C\CCN(C2=O)[C@@H](Cc2ccc(C)cc2)C(=O)N(C)CC(=O)N[C@@H](CCc2ccc(Cl)c(Cl)c2)C(=O)N2C[C@H](OCC)C[C@H]2C(=O)NC2(CC(C)(C)C2)C(=O)N(C)[C@@H](C(CC)CC)C(=O)N(C)[C@H](C(=O)N(C)C)CC(=O)N1C [PP2561] | AA (a compound having 20 or more is denoted as AA) | A (a compound having 10 or more and less than 20 is denoted as A) | 96.4 nM | 1.9 nM
5 | CCO[C@@H]1C[C@H]2C(=O)NC3(CC(C)(C)C3)C(=O)N(C)[C@@H](C3CCCC3)C(=O)N(C)[C@H](C(=O)N(C)C)CC(=O)N(C)[C@@H](COC)C(=O)N[C@@H]([C@@H](C)CC)C(=O)N(C3CC3)CC(=O)N(C)[C@H]3C/C=C\CCN(C3=O)[C@@H](CC3CCCCC3)C(=O)N(C)CC(=O)N[C@@H](CCc3cc(F)c(C(F)(F)F)c(F)c3)C(=O)N2C1 [PP2562] | B (a compound having 3 or more and less than 10 is denoted as B) | B (a compound having 3 or more and less than 10 is denoted as B) | 46.5 nM | 0.91 nM
6 | CCO[C@@H]1C[C@H]2C(=O)NC3(CC(C)(C)C3)C(=O)N(C)[C@@H](C3CCCC3)C(=O)N(C)[C@H](C(=O)N(C)C)CC(=O)N(C)[C@@H](COC)C(=O)N[C@@H]([C@@H](C)CC)C(=O)N(C3CC3)CC(=O)N(C)[C@H]3C/C=C\CCN(C3=O)[C@@H](CC3CCCCC3)C(=O)N(C)CC(=O)N[C@@H](CCc3ccc(Cl)c(Cl)c3)C(=O)N2C1 [PP2563] | A (a compound having 10 or more and less than 20 is denoted as A) | A (a compound having 10 or more and less than 20 is denoted as A) | 108 nM | 2.3 nM
7 | CCO[C@@H]1C[C@H]2C(=O)NC3(CC(C)(C)C3)C(=O)N(C)[C@@H](C(CC)CC)C(=O)N(C)[C@H](C(=O)N(C)C)CC(=O)N(C)[C@@H](COC)C(=O)N[C@@H]([C@@H](C)CC)C(=O)N(C3CC3)CC(=O)N(C)[C@H]3C/C=C\CCN(C3=O)[C@@H](CC3CCCCC3)C(=O)N(C)CC(=O)N[C@@H](CCc3cc(F)c(C(F)(F)F)c(F)c3)C(=O)N2C1 [PP2564] | A (a compound having 10 or more and less than 20 is denoted as A) | A (a compound having 10 or more and less than 20 is denoted as A) | 222 nM | 7.6 nM
8 | CCC[C@H]1C(=O)N[C@@H]([C@@H](C)CC)C(=O)N(C2CC2)CC(=O)N(C)[C@H]2C/C=C\CCN(C2=O)[C@@H](CC2CCC(F)(F)CC2)C(=O)N(C)CC(=O)N[C@@H](CCc2cc(F)c(C(F)(F)F)c(F)c2)C(=O)N2C[C@H](OCC)C[C@H]2C(=O)NC2(CC(C)(C)C2)C(=O)N(C)[C@@H](C2CCCC2)C(=O)N(C)[C@H](C(=O)N(C)C)CC(=O)N1C [PP2566] | A (a compound having 10 or more and less than 20 is denoted as A) | B (a compound having 3 or more and less than 10 is denoted as B) | 17.6 nM | 0.57 nM
9 | CCC[C@H]1C(=O)N[C@@H]([C@@H](C)CC)C(=O)N(C2CC2)CC(=O)N(C)[C@H]2C/C=C\CCN(C2=O)[C@@H](CC2CCC(F)(F)CC2)C(=O)N(C)CC(=O)N[C@@H](CCc2ccc(Cl)c(Cl)c2)C(=O)N2C[C@H](OCC)C[C@H]2C(=O)NC2(CC(C)(C)C2)C(=O)N(C)[C@@H](C2CCCC2)C(=O)N(C)[C@H](C(=O)N(C)C)CC(=O)N1C [PP2567] | A (a compound having 10 or more and less than 20 is denoted as A) | A (a compound having 10 or more and less than 20 is denoted as A) | 102 nM | 1.9 nM
10 | CCO[C@@H]1C[C@H]2C(=O)NC3(CC(C)(C)C3)C(=O)N(C)[C@@H](C(CC)CC)C(=O)N(C)[C@H](C(=O)N(C)C)CC(=O)N(C)[C@@H](COC)C(=O)N[C@@H]([C@@H](C)CC)C(=O)N(C3CC3)CC(=O)N(C)[C@H]3C/C=C\CCN(C3=O)[C@@H](CC3CCC(F)(F)CC3)C(=O)N(C)CC(=O)N[C@@H](CCc3cc(F)c(C(F)(F)F)c(F)c3)C(=O)N2C1 [PP2568] | A (a compound having 10 or more and less than 20 is denoted as A) | B (a compound having 3 or more and less than 10 is denoted as B) | 23.4 nM | 1.2 nM
11 | CCO[C@@H]1C[C@H]2C(=O)NC3(CC(C)(C)C3)C(=O)N(C)[C@@H](C(CC)CC)C(=O)N(C)[C@H](C(=O)N(C)C)CC(=O)N(C)[C@@H](COC)C(=O)N[C@@H]([C@@H](C)CC)C(=O)N(C3CC3)CC(=O)N(C)[C@H]3C/C=C\CCN(C3=O)[C@@H](CC3CCC(F)(F)CC3)C(=O)N(C)CC(=O)N[C@@H](CCc3ccc(Cl)c(Cl)c3)C(=O)N2C1 [PP2569] | AA (a compound having 20 or more is denoted as AA) | A (a compound having 10 or more and less than 20 is denoted as A) | 185 nM | 2.8 nM
12 | CCC[C@H]1C(=O)N[C@@H]([C@@H](C)CC)C(=O)N(C2CC2)CC(=O)N(C)[C@H]2C/C=C\CCN(C2=O)[C@@H](Cc2ccc(C)cc2)C(=O)N(C)CC(=O)N[C@@H](CCc2cc(F)c(C(F)(F)F)c(F)c2)C(=O)N2C[C@H](OC(C)C)C[C@H]2C(=O)NC2(CC(C)(C)C2)C(=O)N(C)[C@@H](C2CCCC2)C(=O)N(C)[C@H](C(=O)N(C)C)CC(=O)N1C [PP2570] | A (a compound having 10 or more and less than 20 is denoted as A) | A (a compound having 10 or more and less than 20 is denoted as A) | 8.9 nM | 0.39 nM
13 | CCC[C@H]1C(=O)N[C@@H]([C@@H](C)CC)C(=O)N(C2CC2)CC(=O)N(C)[C@H]2C/C=C\CCN(C2=O)[C@@H](Cc2ccc(C)cc2)C(=O)N(C)CC(=O)N[C@@H](CCc2ccc(Cl)c(Cl)c2)C(=O)N2C[C@H](OC(C)C)C[C@H]2C(=O)NC2(CC(C)(C)C2)C(=O)N(C)[C@@H](C2CCCC2)C(=O)N(C)[C@H](C(=O)N(C)C)CC(=O)N1C [PP2571] | A (a compound having 10 or more and less than 20 is denoted as A) | A (a compound having 10 or more and less than 20 is denoted as A) | 76.1 nM | 1 nM
14 | CCC(CC)[C@H]1C(=O)N(C)[C@H](C(=O)N(C)C)CC(=O)N(C)[C@@H](COC)C(=O)N[C@@H]([C@@H](C)CC)C(=O)N(C2CC2)CC(=O)N(C)[C@H]2C/C=C\CCN(C2=O)[C@@H](Cc2ccc(C)cc2)C(=O)N(C)CC(=O)N[C@@H](CCc2cc(F)c(C(F)(F)F)c(F)c2)C(=O)N2C[C@H](OC(C)C)C[C@H]2C(=O)NC2(CC(C)(C)C2)C(=O)N1C [PP2572] | A (a compound having 10 or more and less than 20 is denoted as A) | A (a compound having 10 or more and less than 20 is denoted as A) | 82.7 nM | 1.2 nM
